Assay results taken from patent publication US20120184537A1, “[1,4]-BENZODIAZEPINES AS VASOPRESSIN V2 RECEPTOR ANTAGONISTS” (SHIRE-MOVETIS N.V., priority 2009, published 2012).

Key:
human V1a receptors [1] = target: T1, human V1a receptors (Homo sapiens, UniProt P37288); experiment: Human vasopressin V1a receptor binding assay ([3H]AVP displacement); design: expressed in transfected cells; host or cells: CHO cells (membrane homogenates); settings: displacement of 0.3 nM [3H]AVP, CHO cell membranes, 22° C.
Experimental: (§1) The in vitro inhibition of AVP receptor binding was assessed by using recombinant human V1a or V2 receptor preparations derived from the membranes of transfected CHO cells. Compounds were assessed for their ability to displace [^3H]-arginine vasopressin from plasma membrane preparations of said CHO transfected cells in analogy with the Binding Assay procedures described in Cotte N., et al., (1998) J. Biol. Chem., 273; 29462-29468 and Tahara A., et al., (1998) Brit. J. Pharmacol., 125; 1463-1470; which are incorporated herein by reference.
(§2) Cell membrane homogenates (40 μg protein) are incubated for min at 22° C. with 0.3 nM [^3H]AVP in the absence or presence of the test compound in a buffer containing 50 mM Tris-HCl (pH 7.4), 5 mM MgCl2 and 0.1% BSA. Nonspecific binding is determined in the presence of 1 μM AVP. Following incubation, the samples are filtered rapidly under vacuum through glass fiber filters (GF/B, Packard) presoaked with 0.3% PEI and rinsed three times with ice-cold 50 mM Tris-HCl using a 96-sample cell harvester (Unifilter, Packard). The filters are dried then counted for radioactivity in a scintillation counter (Topcount, Packard) using a scintillation cocktail (Microscint 0, Packard).
(§3) The standard reference compound is AVP (V2 receptor binding assay) or [d(CH2)51,Tyr(Me)2]-AVP (V1a receptor binding assay), which is tested in each experiment at several concentrations to obtain a competition curve from which its IC50 is calculated.

human V2 receptor [2] = target: T2, human V2 receptor (Homo sapiens, UniProt P30518); experiment: Human V2 agonist effect (cAMP accumulation in transfected CHO cells); type: cell-based; design: expressed in transfected cells; host or cells: CHO cells; settings: compound at 1 μM, control response to 1 nM AVP
Experimental: (§4) The accumulation of cAMP was measured in transfected CHO cells (supra) expressing the human V2 receptor in analogy with the cAMP Assay procedures described in Cotte N., et al., (1998) J. Biol. Chem., 273; 29462-29468; which is incorporated herein by reference.
The cells are suspended in HBSS buffer (Invitrogen) complemented with 20 mM HEPES 20 (pH 7.4), 0.01% BSA and 500 μM IBMX, then distributed in microplates at a density of 3×10^3 cells/well and incubated for 30 min at 22° C. in the absence (control) or presence of the test compound or the reference agonist. For stimulated control measurement, separate assay wells contain AVP at a final concentration of 1 nM. Following incubation, the cells are lysed and the fluorescence acceptor (D2-labeled cAMP) and fluorescence donor (anti-cAMP antibody labeled with europium cryptate) are added. After 60 min at 22° C., the fluorescence transfer is measured at λex=337 nm and λem=620 and 665 nm using a microplate reader (Rubystar, BMG). The cAMP concentration is determined by dividing the signal measured at 665 nm by that measured at 620 nm (ratio).
The results are expressed as a percent of the control response to 1 nM AVP.

human V1a receptors [3] = target: T1, human V1a receptors; experiment: Human V1a agonist effect (intracellular calcium mobilization in transfected CHO cells); type: cell-based; design: expressed in transfected cells; host or cells: CHO cells; settings: compound at 1 μM, control response to 1 μM AVP, Ca2+ fluorescence
Experimental: (§5) Intracellular calcium mobilization was measured in CHO cells transfected to express either human V1a receptors (supra), in analogy with the Measurement of intracellular Ca^2+ concentration as described in Tahara A., et al., (1998) Brit. J. Pharmacol., 125; 1463-1470; which is incorporated herein by reference.
(§6) The cells are suspended in DMEM buffer (Invitrogen) complemented with 0.1% fetal calf serum, then distributed in microplates at a density of 4.5×10^4 cells/well.
(§7) The fluorescent probe (Calcium4, Molecular Device) mixed with probenicid in HBSS buffer (Invitrogen) complemented with 20 mM Hepes (Invitrogen) (pH 7.4) is then added into each well and equilibrated with the cells for 60 min at 37° C. then 15 min at 22° C. Thereafter, the assay plates are positioned in a microplate reader (CellLux, PerkinElmer) which is used for the addition of the test compound, reference agonist or HBSS buffer (basal control), and for the measurements of changes in fluorescence intensity which varies proportionally to the free cytosolic Ca^2+ ion concentration. For stimulated control measurements, AVP at 1 μM is added in separate assay wells.
The results are expressed as a percent of the control response to 1 μM AVP.

human V2 receptor [4] = target: T2, human V2 receptor; experiment: Human vasopressin V2 receptor binding assay ([3H]AVP displacement); design: expressed in transfected cells; host or cells: CHO cells (membrane homogenates); settings: displacement of 0.3 nM [3H]AVP, CHO cell membranes, 120 min at 22° C.
Experimental: as §1
as §2, with “membrane homogenates (16 μg protein)” for “membrane homogenates (40 μg protein)”, “incubated for 120 min at” for “incubated for min at”
as §3

human V2 receptor [5] = target: T2, human V2 receptor; experiment: Human V2 antagonist effect (AVP-induced cAMP accumulation in transfected CHO cells); type: cell-based; design: expressed in transfected cells; host or cells: CHO cells; settings: inhibition of control response to 0.03 nM AVP, read-out: V2 antagonism IC50
Experimental: as §4
The cells are suspended in HBSS buffer (Invitrogen) complemented with 20 mM HEPES (pH 7.4), 0.01% and 500 μM IBMX, then distributed in microplates at a density of 3×10^3 cells/well and preincubated for 5 min at 22° C. in the absence (control) or presence of the test compound or the reference antagonist. Thereafter, the reference agonist AVP is added at a final concentration of 0.03 nM.
Following 30 min incubation at 22° C., the cells are lysed and the fluorescence acceptor (D2-labeled cAMP) and fluorescence donor (anti-cAMP antibody labeled with europium cryptate) are added. After 60 min at 22° C., the fluorescence transfer is measured at λex=337 nm and λem=620 and 665 nm using a microplate reader (Rubystar, BMG). The cAMP concentration is determined by dividing the signal measured at 665 nm by that measured at 620 nm (ratio). The results are expressed as a percent inhibition of the control response to 0.03 nM AVP.
The standard reference antagonist is [adamantaneacetyl^1,O-Et-D-Tyr^2,Val^4,aminobutyryl^6]-AVP, which is tested in each experiment at several concentrations to generate a concentration-response curve from which its IC50 value is calculated.

human V1a receptors [6] = target: T1, human V1a receptors; experiment: Human V1a antagonist effect (AVP-induced calcium mobilization in transfected CHO cells); type: cell-based; design: expressed in transfected cells; host or cells: CHO cells; settings: inhibition of response to 10 nM AVP, Ca2+ fluorescence, read-out: V1a antagonism IC50
Experimental: as §5, §6
as §7, with “compound” for “compound, reference agonist”, “then 5 min later 10 nM AVP or HBSS buffer (control),” for “(basal control),”, “Ca2+” for “Ca^2+”, “concentration.” for “concentration. For stimulated control measurements, AVP at 1 μM is added in separate assay wells.”
The standard reference antagonist is [d(CH2)^51,Tyr(Me)^2,Arg^8]-AVP, which is tested in each experiment at several concentrations to generate a concentration-response curve from which its IC50 value is calculated.

T1 sequence (P37288 whole entry): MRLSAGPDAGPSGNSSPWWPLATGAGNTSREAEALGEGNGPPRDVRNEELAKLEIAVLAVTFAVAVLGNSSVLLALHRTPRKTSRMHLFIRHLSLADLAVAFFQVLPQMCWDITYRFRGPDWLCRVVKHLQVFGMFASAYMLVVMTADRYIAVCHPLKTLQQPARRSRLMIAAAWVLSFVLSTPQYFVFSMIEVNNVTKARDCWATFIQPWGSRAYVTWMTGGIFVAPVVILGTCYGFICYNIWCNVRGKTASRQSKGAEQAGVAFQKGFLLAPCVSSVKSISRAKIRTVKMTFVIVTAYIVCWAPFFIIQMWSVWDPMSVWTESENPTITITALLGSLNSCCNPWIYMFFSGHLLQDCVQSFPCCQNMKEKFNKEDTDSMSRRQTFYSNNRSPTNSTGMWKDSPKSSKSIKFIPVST

| Compound | IC50 (human V1a receptors [1]) [nM] | V2 agonist effect, % of control agonist response (AVP) (human V2 receptor [2]) [%] | V1a agonist effect, % of control agonist response (AVP) (human V1a receptors [3]) [%] | IC50 (human V2 receptor [4]) [nM] | IC50 (human V2 receptor [5]) [nM] | IC50 (human V1a receptors [6]) [µM] |
| --- | --- | --- | --- | --- | --- | --- |
| N-[3-chloro-4-({13-oxa-1,9-diazatricyclo[9.4.0.0^{3,8}]pentadeca-1,3,5,7-tetraen-9-yl}carbonyl)phenyl]-2-phenylbenzamide [Compound 21] | 780 | −1.5 | – | 19 | 410 | > 100 |
| O=C1CN2Cc3ccccc3N(C(=O)c3ccc(NC(=O)c4ccccc4-c4ccccc4)cc3Cl)C[C@H]2CO1 [Compound 16, (S)—N-(3-chloro-4-(3-oxo-3,4,6,11,12,12a-hexahydro-1H-benzo[e][1,4]oxazino[4,3-a][1,4]diazepine-11-carbonyl)phenyl)biphenyl-2-carboxamide] | 240 | 0 | −1 | 1.9 | 13 | > 100 |

Second part, the compound after the results:

| IC50 (human V1a receptors [1]) [nM] | V2 agonist effect, % of control agonist response (AVP) (human V2 receptor [2]) [%] | V1a agonist effect, % of control agonist response (AVP) (human V1a receptors [3]) [%] | IC50 (human V2 receptor [4]) [nM] | IC50 (human V2 receptor [5]) [nM] | IC50 (human V1a receptors [6]) [µM] | Compound |
| --- | --- | --- | --- | --- | --- | --- |
| 3800 | −1 | −1 | 5.8 | 57 | > 100 | O=C(Nc1ccc(C(=O)N2C[C@@H](CO)NCc3ccccc32)c(Cl)c1)c1ccccc1-c1ccccc1 [Compound 14, (S)—N-(3-chloro-4-(3-(hydroxymethyl)-2,3,4,5-tetrahydro-1H-benzo[e][1,4]diazepine-1-carbonyl)phenyl)biphenyl-2-carboxamide] |
| 210 | 0 | −1 | 2.5 | 11 | 20 | O=C(Nc1ccc(C(=O)N2C[C@H]3COC(O)CN3Cc3ccccc32)c(Cl)c1)c1ccccc1-c1ccccc1 (stereo partly drawn) [Compound 19, (S)—N-(3-chloro-4-(3-hydroxy-3,4,6,11,12,12a-hexahydro-1H-benzo[e][1,4]oxazino[4,3-a][1,4]diazepine-11-carbonyl)phenyl)biphenyl-2-carboxamide] |
| – | −1 | −1 | 120 | 2800 | – | O=C(O)CN1Cc2ccccc2N(C(=O)c2ccc(NC(=O)c3ccccc3-c3ccccc3)cc2Cl)C[C@H]1CO [Compound 17, (S)-2-(1-(4-biphenyl-2-ylcarboxamido-2-chlorobenzoyl)-3-(hydroxymethyl)-2,3-dihydro-1H-benzo[e][1,4]diazepin-4(5H)-yl)acetic acid] |
